Each substance was assayed on NanoLuc (assay: NanoLuc luciferase reporter expression from constitutive promoters and RBSs integrated with pNBU2). Details: RBS combined with promoter PBT1311, NanoLuc reporter, three biological replicates.
Type: cell-based, B. thetaiotaomicron
From the text: FIGS. 1A-1G. Genetic parts to control expression in B. thetaiotaomicron. (FIG. 1A) The ranges of gene expression are shown for the different gene regulation systems provided herein. (FIG. 1B) IntN2 catalyzes stable integration of pNBU2-based expression constructs into one of two attBT2 sites in the B. thetaiotaomicron genome. The two attBT2 sites (attBT2-1 at nucleotide (nt) 6,217,227 and attBT2-2 at nt 6,138,320) are in the 3′ ends of tRNA^Ser genes (BT_t71 and BT_t70, respectively). (FIG. 1C) Constitutive promoters and ribosome binding sites for the construction of gene expression libraries. The putative −33 and −7 regions of the PBT1311 promoter, the Shine-Delgarno sequence, and the start codon are indicated by black boxes. Numbers below the black boxes represent nucleotide locations relative the PBT1311 transcription start site. The 26 nt sequences introduced in the PAM promoters are shown (see also FIGS. 6A-6B). Numbers at the edges of the boxes indicate the PBT1311 nucleotides replaced or the insertion site within the promoter. The location of residues randomized in the rpiL* RBS library are indicated with gray arrows (for library A: nt −14, −13, −12; for library B: nt −21, −18, −15; and for library C: nt −17, −16, −11; nt numbering is relative to the translation start site). (FIG. 1D) Activity was measured for a set of constitutive promoters and their cognate RBSs. Furthermore, a set of constitutive promoters (PBT1311, PAM1, PAM2, PAM3, PAM4) was combined with RBSs of varying strengths. Gene expression was measured using a luciferase reporter (NanoLuc). (FIG. 1E) Three large RBS libraries were constructed and combined with promoter PBT1311 to span 10^3-fold in gene expression. For reference, the parent rpiL* RBS is indicated with a black arrow. For D and E, error bars represent the standard deviation of three independent biological replicates made on separate days. (FIG. 1F) The strength of each RBS was compared to the predicted free energy of folding for the mRNA (ΔGfold,). (FIG. 1G) Strong (SEQ ID NO: 210) and weak (SEQ ID NO: 211) consensus sequences for the rpiL* −21 to −11 RBS region targeted by mutagenesis (residue locations are stated relative to the translation start site) are provided. Frequency logos were generated for the 11 strongest and 11 weakest RBSs by comparing the frequency of each nucleotide at each position in that group with the frequency of that nucleotide in that position in the full library. Position −20 and −19 were not randomized and are thus are not shown in the frequency logos.
All genetic parts in this study were characterized using the integration vector pNBU2 to ensure genetic stability of the constructs (FIG. 1B). The pNBU2 plasmid encodes the intN2 tyrosine integrase, which mediates sequence-specific recombination between the attN site of pNBU2 and one of two attBT sites located in the 3′ ends of the two tRNA^Ser genes, BT_t70 and BT_t71, on the B. thetaiotaomicron chromosome (FIG. 1B). Insertion of the pNBU2 plasmid inactivates the tRNA^Ser gene, and simultaneous insertion into both BT_t70 and BT_t71 is unlikely due to the essentiality of tRNA^Ser. pNBU2-based vectors have been used for single-copy complementation in B. thetaiotaomicron in in vitro studies (Koropatkin N M et al. Nat. Rev. Microbiol. 10:323-35, 2012) and in vivo mouse models (Martens E C et al. Cell Host Microbe 4:447-57, 2008).
B. thetaiotaomicron genetic parts were characterized with NanoLuc luciferase (Hall M P et al. ACS Chem. Biol. 7:1848-1857, 2012), which is a small (19 kDa) modified shrimp luciferase. Efforts to use members of the green fluorescent protein family and a FMN-based fluorescent reporter were not successful. NanoLuc oxidizes the exogenously-added substrate furimazine to produce glow-type bioluminescence (Emax=460 nm) with a signal half-life of 2 hr. […]

Row | Substance | Average Luminescence (RLU/CFU)
1 | B29: RBS, SEQ ID NO: 80 (DNA TCCCGCATTTTAAAATAAAATAAATTATATAGTTAATTAAACGAAT; chemistry not fully specified) | 0.009478
2 | B30: RBS, SEQ ID NO: 82 (DNA TCCCGCATTTTAAAATAAAATAAATGATGTATTTAATTAAACGAAT; chemistry not fully specified) | 0.009276
3 | B31: RBS, SEQ ID NO: 85 (DNA TCCCGCATTTTAAAATAAAATAAATGATCTAGTTAATTAAACGAAT; chemistry not fully specified) | 0.008534
4 | B32: RBS, SEQ ID NO: 92 (DNA TCCCGCATTTTAAAATAAAATAAATGATGTAGTTAATTAAACGAAT; chemistry not fully specified) | 0.007096
5 | B33: RBS, SEQ ID NO: 97 (DNA TCCCGCATTTTAAAATAAAATAAATCATGTATTTAATTAAACGAAT; chemistry not fully specified) | 0.006272
6 | B34: RBS, SEQ ID NO: 98 (DNA TCCCGCATTTTAAAATAAAATAAATCATCTATTTAATTAAACGAAT; chemistry not fully specified) | 0.00584
7 | B35: RBS, SEQ ID NO: 105 (DNA TCCCGCATTTTAAAATAAAATAAATCATGTACTTAATTAAACGAAT; chemistry not fully specified) | 0.005272
8 | B36: RBS, SEQ ID NO: 112 (DNA TCCCGCATTTTAAAATAAAATAAATCATATAATTAATTAAACGAAT; chemistry not fully specified) | 0.004282
9 | B37: RBS, SEQ ID NO: 121 (DNA TCCCGCATTTTAAAATAAAATAAATCATATATTTAATTAAACGAAT; chemistry not fully specified) | 0.002567
10 | B38: RBS, SEQ ID NO: 127 (DNA TCCCGCATTTTAAAATAAAATAAATCATTTAGTTAATTAAACGAAT; chemistry not fully specified) | 0.001793
11 | B39: RBS, SEQ ID NO: 133 (DNA TCCCGCATTTTAAAATAAAATAAATCATCTAGTTAATTAAACGAAT; chemistry not fully specified) | 0.001255
12 | B40: RBS, SEQ ID NO: 134 (DNA TCCCGCATTTTAAAATAAAATAAATCATGTAGTTAATTAAACGAAT; chemistry not fully specified) | 0.001108
13 | B41: RBS, SEQ ID NO: 139 (DNA TCCCGCATTTTAAAATAAAATAAATCATATAGTTAATTAAACGAAT; chemistry not fully specified) | 0.0001307
14 | C1: RBS, SEQ ID NO: 11 (DNA TCCCGCATTTTAAAATAAAATAAATTATTGATTTAGTTAAACGAAT; chemistry not fully specified) | 0.04468
15 | C2: RBS, SEQ ID NO: 13 (DNA TCCCGCATTTTAAAATAAAATAAATTATTACTTTAGTTAAACGAAT; chemistry not fully specified) | 0.04331
16 | C3: RBS, SEQ ID NO: 14 (DNA TCCCGCATTTTAAAATAAAATAAATTATTACTTTAATTAAACGAAT; chemistry not fully specified) | 0.03677
17 | C4: RBS, SEQ ID NO: 16 (DNA TCCCGCATTTTAAAATAAAATAAATTATTTATTTAGTTAAACGAAT; chemistry not fully specified) | 0.03516
18 | C5: RBS, SEQ ID NO: 17 (DNA TCCCGCATTTTAAAATAAAATAAATTATTCATTTAATTAAACGAAT; chemistry not fully specified) | 0.03327
19 | C6: RBS, SEQ ID NO: 19 (DNA TCCCGCATTTTAAAATAAAATAAATTATTAATTTAGTTAAACGAAT; chemistry not fully specified) | 0.03263
